Experimental data as given in patent US20230250096A1, “SUBSTITUTED PHENYL-1H-PYRROLO[2,3-c] PYRIDINE DERIVATIVES” (Janssen Pharmaceutica NV, priority 2021, published 2023).

How the values were obtained:
[1] = biological target: T1, menin/MLL (terbium chelate-labeled menin, FITC-MBM1 peptide) (Homo sapiens, UniProt O00255, T541A); experiment: Menin/MLL homogenous time-resolved fluorescence (HTRF) assay; assay type: binding; details: 30 min incubation
T1 construct: Menin (a.a 1-610-6xhis tag, 2.3 mg/mL in 20 mM Hepes)
T1 sequence (O00255 with tags, fused parts or gaps T541A): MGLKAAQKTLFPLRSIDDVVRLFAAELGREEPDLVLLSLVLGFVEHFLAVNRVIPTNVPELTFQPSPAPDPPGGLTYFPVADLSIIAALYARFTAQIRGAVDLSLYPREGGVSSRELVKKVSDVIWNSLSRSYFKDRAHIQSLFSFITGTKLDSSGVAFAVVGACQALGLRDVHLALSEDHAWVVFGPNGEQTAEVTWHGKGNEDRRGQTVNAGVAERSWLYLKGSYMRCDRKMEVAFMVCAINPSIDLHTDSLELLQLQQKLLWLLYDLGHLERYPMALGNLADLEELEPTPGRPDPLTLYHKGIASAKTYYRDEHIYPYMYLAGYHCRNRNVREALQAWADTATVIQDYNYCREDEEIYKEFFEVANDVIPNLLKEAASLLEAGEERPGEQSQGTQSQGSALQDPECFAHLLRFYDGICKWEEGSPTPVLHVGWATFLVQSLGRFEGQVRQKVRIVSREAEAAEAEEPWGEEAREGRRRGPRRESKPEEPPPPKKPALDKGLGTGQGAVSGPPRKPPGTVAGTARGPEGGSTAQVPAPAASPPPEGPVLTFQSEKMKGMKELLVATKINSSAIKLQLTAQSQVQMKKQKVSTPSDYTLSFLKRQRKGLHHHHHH
In short: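 Terbium-labeled menin (a.a. 1-610, His-tagged; […]) pre-incubated 30 min with compound, then 75 nM FITC-MBM1 peptide added for 15 min at ambient temperature in Tris pH 7.5 buffer, 0.5% DMSO. HTRF 520/490 nm ratio read; IC50 from 11-point four-fold titrations, typically from 10 μM.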

MEIS1 mRNA expression = MEIS1 mRNA expression assay (Quantigene Singleplex) in MOLM14 cells; assay type: cell-based, human; details: 48 hours incubation
In short: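 MOLM14 cells, 3,750/well, exposed to increasing compound concentrations for 48 h. MEIS1 mRNA measured by QuantiGene Singleplex branched-DNA hybridization (lysis 45 min, hybridization 18–22 h, both 55 °C), normalized to RPL28. IC50 fitted to background-corrected fold change versus DMSO.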

Structure (SMILES)	IC50 [1] [nM]	IC50 (MEIS1 mRNA expression; Homo sapiens, MOLM-14, 48 h) [nM]	IC50 (MEIS1 mRNA expression) [nM]
Cc1cncc2c1c(C[C@@H]1CCN(C[C@H]3CCOC3)C1)cn2-c1ccc(F)cc1C(=O)N(C)C(C)C (single isomer, unassigned) [Compound 190a]	0.101	113	–
Cc1cncc2c1c(C[C@@H]1CCN(C[C@@H]3CCOC3)C1)cn2-c1ccc(F)cc1C(=O)N(C)C(C)C (single isomer, unassigned) [Compound 190b]	0.063	65	–
Cc1cncc2c1c(CC1CN(C[C@H]3CCOC3)C1)cn2-c1ccc(F)cc1C(=O)N(C)C(C)C (single isomer, unassigned) [Compound 191a]	0.056	39	–
Cc1cncc2c1c(CC1CN(C[C@@H]3CCOC3)C1)cn2-c1ccc(F)cc1C(=O)N(C)C(C)C (single isomer, unassigned) [Compound 191b]	0.071	41	–
Cc1cncc2c1c(C[C@@H]1CCN([C@@H](CO)C3CCCOC3)C1)cn2-c1ccc(F)cc1C(=O)N(C)C(C)C (single isomer, unassigned) [Compound 198a]	0.034	13	–
Cc1cncc2c1c(C[C@@H]1CCN([C@H](CO)C3CCCOC3)C1)cn2-c1ccc(F)cc1C(=O)N(C)C(C)C (single isomer, unassigned) [Compound 198b]	0.085	107	–
COCCN(C)CCCC(C(C)C)N1CC[C@@H](Cc2cn(-c3ccc(F)cc3C(=O)N(C)C(C)C)c3cncc(Cl)c23)C1 (stereo partly shown) [Compound 3]	0.026	10	–
COCCN(C)CCCC(C(C)C)N1CC[C@H](Cc2cn(-c3ccc(F)cc3C(=O)N(C)C(C)C)c3cncc(Cl)c23)C1 (stereo partly shown) [Compound 4]	0.016	11	–
COCCN(C)CCCC(C(C)C)N1CCC(Cc2cn(-c3ccc(F)cc3C(=O)N(C)C(C)C)c3cncc(F)c23)C1 (stereo not shown) [Compound 6]	0.288	49	–
CNC(=O)[C@H]1CC[C@H](CN2CC(Cc3cn(-c4ccc(F)cc4C(=O)N(C)C(C)C)c4cncc(C)c34)C2)CC1 [Compound 74]	0.034	12	–
CNC(=O)c1cncc(N2CCC(N3CC(Cc4cn(-c5ccc(F)cc5C(=O)N(C)C(C)C)c5cncc(C)c45)C3)CC2)n1 [Compound 75]	0.059	119	–
CN=S(=O)(c1cc(F)ccc1-n1cc(CC2CCN(CC3CCOCC3)C2)c2c(C)cncc21)C(C)C (stereo not shown) [Compound 77]	0.191	136	–
CC(=O)N1CCC(C)(CN2CC(Cc3cn(-c4ccc(F)cc4C(=O)N(C)C(C)C)c4cncc(C)c34)C2)CC1 [Compound 84]	0.075	131	–
Cc1cncc2c1c(CC1CN(CC3CCNC(=O)CC3)C1)cn2-c1ccc(F)cc1C(=O)N(C)C(C)C (stereo not shown) [Compound 104]	0.147	254	–
CN=S(=O)(c1cc(F)ccc1-n1cc(CC2CCN(CC3CCN(C(C)=O)CC3)C2)c2c(C)cncc21)C(C)C (stereo not shown) [Compound 128]	0.078	238	–
Cc1cncc2c1c(CC1CN(CC3CCC(O)CC3)C1)cn2-c1ccc(F)cc1C(=O)N(C)C(C)C (stereo not shown) [Compound 144]	0.072	11	–
COC(=O)[C@H]1CC[C@@H](CN2CC[C@@H](Cc3cn(-c4ccc(F)cc4C(=O)N(C)C(C)C)c4cncc(C)c34)C2)CC1 [Compound 153]	0.077	77	–
Cc1cncc2c1c(C[C@@H]1CCN(C[C@H]3CC[C@@H](C(=O)N4CCC4)CC3)C1)cn2-c1ccc(F)cc1C(=O)N(C)C(C)C [Compound 178]	0.055	14	–
CNC(=O)[C@H]1CC[C@@H](CN2CC[C@@H](Cc3cn(-c4ccc(F)cc4C(=O)N(C)C(C)C)c4cncc(C)c34)C2)CC1 [Compound 185]	0.097	44	–
CC(=O)N1CCC(CCN2CC[C@@H](Cc3cn(-c4ccc(F)cc4C(=O)N(C)C(C)C)c4cncc(C)c34)C2)CC1 [Compound 189]	0.544	314	–
Cc1cncc2c1c(C[C@@H]1CCN(C[C@H]3CCCCN3)C1)cn2-c1ccc(F)cc1C(=O)N(C)C(C)C [Compound 199]	0.327	338	–
CC(=O)NC1CCC(N2CC[C@@H](Cc3cn(-c4ccc(F)cc4C(=O)N(C)C(C)C)c4cncc(C)c34)C2)CC1 (stereo partly shown) [Compound 200]	0.909	–	~864
CC(=O)NC1CCC(N2CC[C@@H](Cc3cn(-c4ccc(F)cc4C(=O)N(C)C(C)C)c4cncc(C)c34)C2)CC1 (stereo partly shown) [Compound 201]	0.063	–	47
CC(=O)N1CC2CC(C1)C2N1CC[C@H](Cc2cn(-c3ccc(F)cc3C(=O)N(C)C(C)C)c3cncc(C)c23)C1 (stereo partly shown) [Compound 208]	0.147	281	–
CC(=O)N1CC2CC(C1)C2N1CC[C@@H](Cc2cn(-c3ccc(F)cc3C(=O)N(C)C(C)C)c3cncc(C)c23)C1 (stereo partly shown) [Compound 209]	0.202	> 1000	–

Now from value to molecule:

IC50 [1] [nM]	IC50 (MEIS1 mRNA expression; Homo sapiens, MOLM-14, 48 h) [nM]	IC50 (MEIS1 mRNA expression) [nM]	Structure (SMILES)
0.049	21	–	Cc1cncc2c1c(C[C@@H]1CCN(CC3CCC(O)CC3)C1)cn2-c1ccc(F)cc1C(=O)N(C)C(C)C (single isomer, unassigned) [Compound 205a]
0.035	–	31	Cc1cncc2c1c(C[C@@H]1CCN(CC3CCC(O)CC3)C1)cn2-c1ccc(F)cc1C(=O)N(C)C(C)C (single isomer, unassigned) [Compound 205b]
0.045	24	–	CC(=O)N1CCC([C@H](CO)N2CC[C@@H](Cc3cn(-c4ccc(F)cc4C(=O)N(C)C(C)C)c4cncc(C)c34)C2)CC1 (single isomer, unassigned) [Compound 206a]
0.037	14	–	CC(=O)N1CCC(CN2CC[C@@H](Cc3cn(-c4ccc(F)cc4C(=O)N4CCC5CC54)c4cncc(C)c34)C2)CC1 (single isomer, unassigned) [Compound 311a]
0.077	–	26	CC(=O)N1CCC(CN2CC[C@@H](Cc3cn(-c4ccc(F)cc4C(=O)N4CCC5CC54)c4cncc(C)c34)C2)CC1 (single isomer, unassigned) [Compound 311b]
0.102	13	–	Cc1cncc2c1c(C[C@@H]1CCN(C[C@H]3CCNC(=O)CC3)C1)cn2-c1ccc(F)cc1C(=O)N1[C@H](C)CC[C@H]1C (single isomer, unassigned) [Compound 352a]
0.247	266	–	Cc1cncc2c1c(C[C@@H]1CCN(C[C@@H]3CCNC(=O)CC3)C1)cn2-c1ccc(F)cc1C(=O)N1[C@H](C)CC[C@H]1C (single isomer, unassigned) [Compound 352b]
0.094	–	12	Cc1cncc2c1c(C[C@@H]1CCN(CC3CCNC(=O)CC3)C1)cn2-c1ccc(F)cc1C(=O)N1CCC[C@H]1C (single isomer, unassigned) [Compound 353a]
0.081	25	–	CNC(=O)N1CCC(CN2CCC(Cc3cn(-c4ccc(F)cc4C(=O)N(C)C(C)C)c4cncc(C)c34)CC2)CC1 [Compound 202]
0.069	43	–	CON(C)C(=O)N1CCC(CN2CCC(Cc3cn(-c4ccc(F)cc4C(=O)N(C)C(C)C)c4cncc(C)c34)CC2)CC1 [Compound 203]
0.091	79	–	Cc1cncc2c1c(CC1CCN(CC3CCN(C(=O)N4CCOCC4)CC3)CC1)cn2-c1ccc(F)cc1C(=O)N(C)C(C)C [Compound 204]
0.106	19	–	Cc1cncc2c1c(C[C@@H]1CCN(CC3CCC(O)CC3)C1)cn2-c1ccc(F)cc1C(=O)N(C)C(C)C (stereo partly shown) [Compound 205]
0.016	29	–	Cc1cncc2c1c(C[C@@H]1CCN(CC3CCN(C(N)=O)CC3)C1)cn2-c1ccc(F)cc1C(=O)N(C)C(C)C [Compound 207]
